Measurements as given in patent publication US9718788B2, “Heteroaryl compounds useful as inhibitors of E1 activating enzymes” (MILLENNIUM PHARMACEUTICALS, INC., priority 2006, dated 2017).

Target: T1, recombinant human NAE enzyme (Homo sapiens, UniProt Q8TBC4)
T1 construct: His (N); made in house; host or cells: Sf9 insect cells (baculovirus, Bac-to-Bac)
T1 sequence (Q8TBC4 1-463): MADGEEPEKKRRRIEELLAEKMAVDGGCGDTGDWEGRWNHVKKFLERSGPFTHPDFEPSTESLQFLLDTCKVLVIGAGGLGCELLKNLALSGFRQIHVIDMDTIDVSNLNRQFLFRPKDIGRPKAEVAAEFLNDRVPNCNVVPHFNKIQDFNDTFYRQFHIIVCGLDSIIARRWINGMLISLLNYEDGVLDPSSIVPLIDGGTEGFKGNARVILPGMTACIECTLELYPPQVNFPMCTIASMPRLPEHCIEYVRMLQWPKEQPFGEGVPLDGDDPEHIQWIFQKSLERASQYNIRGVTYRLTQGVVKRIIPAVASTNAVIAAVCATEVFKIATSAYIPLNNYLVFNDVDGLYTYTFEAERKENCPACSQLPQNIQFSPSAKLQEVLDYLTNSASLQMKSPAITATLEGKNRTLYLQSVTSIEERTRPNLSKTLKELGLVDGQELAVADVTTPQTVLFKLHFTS
T1 sequence (Q13564 1-534 partner): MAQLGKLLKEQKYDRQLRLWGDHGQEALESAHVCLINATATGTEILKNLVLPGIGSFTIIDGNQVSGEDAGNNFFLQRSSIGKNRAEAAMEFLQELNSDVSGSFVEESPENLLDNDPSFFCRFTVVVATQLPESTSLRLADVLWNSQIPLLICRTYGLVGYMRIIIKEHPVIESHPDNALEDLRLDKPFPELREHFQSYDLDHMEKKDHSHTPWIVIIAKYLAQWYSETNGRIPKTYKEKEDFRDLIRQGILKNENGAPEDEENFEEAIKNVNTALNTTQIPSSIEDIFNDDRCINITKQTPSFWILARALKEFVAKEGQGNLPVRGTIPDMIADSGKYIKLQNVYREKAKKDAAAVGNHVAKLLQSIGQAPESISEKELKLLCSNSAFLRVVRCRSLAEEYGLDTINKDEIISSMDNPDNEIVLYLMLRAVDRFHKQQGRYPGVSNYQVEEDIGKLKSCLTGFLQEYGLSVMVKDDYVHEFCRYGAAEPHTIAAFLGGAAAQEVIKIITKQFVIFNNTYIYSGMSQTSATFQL
Assay: Nedd8-Activating Enzyme (NAE) HTRF Assay
Type: biochemical
Details: 20 μM ATP
Protocol: Following manufacturer instructions, baculoviruses were generated with the Bac-to-Bac Expression System (Invitrogen) for the following proteins: untagged NAEα (APPBP1; NP_003896.1), N-terminally His-tagged NAEJ (UBE1C; NP_003959.3), untagged SAEα (SAE1; NP_005491.1), N-terminally His-tagged SAE3 (UBA2; NP_005490.1), N-terminally His-tagged murine UAE (UBE1X; NP_033483). NAEα/His-NAEβ and SAEα/His-SAEβ complexes were generated by co-infection of Sf9 cells, which were harvested after 48 hours. His-mUAE was generated by single infection of Sf9 cells and harvested after 72 hours. Expressed proteins were purified by affinity chromatography (Ni-NTA agarose, Qiagen) using standard buffers. Nedd8-Activating Enzyme (NAE) HTRF Assay. The NAE enzymatic reaction totaled 50 μL and contained 50 mM HEPES (pH 7.5), 0.05% BSA, 5 mM MgCl2, 20 μM ATP, 250 μM GSH, 0.01 μM Ubc12-GST, 0.075 μM Nedd8-Flag and 0.20 nM recombinant human NAE enzyme. The enzymatic reaction mixture, with and without compound inhibitor, was incubated at room temperature 24° C. for 105 minutes in a 384-well plate before termination with 25 μL of Stop/Detection buffer (0.1M HEPES pH 7.5, 0.05% Tween20, 20 mM EDTA, 410 mM KF, 0.53 nM Europium-Cryptate labeled monoclonal anti-FLAG M2 antibody (CisBio International) and 8.125 μg/mL PHYCOLINK goat anti-GST allophycocyanin (XL-APC) antibody (Prozyme)). After incubation for 1 hour at 24° C., quantification of the FRET was performed on the Analyst™ HT 96.384 (Molecular Devices).

Row | IC50 (bound given in nM) [nM] | IC50 (bound given in μM) [nM] | SMILES
1 | > 500 | < 10000 | NS(=O)(=O)OC[C@@H]1C[C@@H](Oc2cc(NC3CCCC3)ncn2)C[C@@H]1O [Compound I-127, ((1S,2S,4R)-4-{[6-(cyclopentylamino)pyrimidin-4-yl]oxy}-2-hydroxycyclopentyl)methyl sulfamate]
2 | ≤ 500 |  | CO[C@H]1Cc2ccccc2[C@H]1Nc1cc(O[C@@H]2C[C@@H](CNS(N)(=O)=O)[C@@H](O)C2)ncn1 [Compound I-82, N-({(1S,2S,4R)-2-hydroxy-4-[(6-{[(1R,2S)-2-methoxy-2,3-dihydro-1H-inden-1-yl]amino}pyrimidin-4-yl)oxy]cyclopentyl}methyl)sulfamide]
3 | > 500 | < 10000 | NS(=O)(=O)OC[C@H]1C[C@@H](NC(=O)c2ccncc2)[C@H](O)[C@@H]1O [Compound I-28, [(1R,2R,3S,4R)-2,3-dihydroxy-4-(isonicotinoylamino)cyclopentyl]methyl sulfamate]
4 | ≤ 500 |  | CO[C@H]1Cc2ccccc2[C@H]1Nc1ncnc(N[C@@H]2C[C@H](COS(N)(=O)=O)[C@@H](O)[C@H]2O)n1 [Compound I-55, {(1R,2R,3S,4R)-2,3-dihydroxy-4-[(4-{[(1R,2S)-2-methoxy-2,3-dihydro-1H-inden-1-yl]amino}-1,3,5-triazin-2-yl)amino]cyclopentyl}methyl sulfamate]
5 | > 500 | < 10000 | NS(=O)(=O)OC[C@@H]1C[C@@H](Nc2cc(N[C@H]3CCc4ccccc43)nc(=O)[nH]2)C[C@@H]1O [Compound I-54, [(1S,2S,4R)-4-({6-[(1S)-2,3-dihydro-1H-inden-1-ylamino]-2-oxo-2,3-dihydropyrimidin-4-yl}amino)-2-hydroxycyclopentyl]methyl sulfamate]
6 |  | > 10000 | NS(=O)(=O)OC[C@@H]1C[C@@H](Oc2cc(N3CCc4ccccc4C3)ncn2)C[C@@H]1O [Compound I-61, ((1S,2S,4R)-4-{[6-(3,4-dihydroisoquinolin-2(1H)-yl)pyrimidin-4-yl]oxy}-2-hydroxycyclopentyl)methyl sulfamate]
7 | ≤ 500 |  | CO[C@@H]1CCc2ccccc2[C@@H]1Nc1cc(O[C@@H]2C[C@@H](COS(N)(=O)=O)[C@@H](O)C2)ncn1 [Compound I-143, {(1S,2S,4R)-2-hydroxy-4-[(6-{[(1S,2R)-2-methoxy-1,2,3,4-tetrahydronaphthalen-1-yl]amino}pyrimidin-4-yl)oxy]cyclopentyl}methyl sulfamate]
8 | ≤ 500 |  | NS(=O)(=O)OC[C@@H]1C[C@@H](Nc2ncnc3[nH]c(-c4cccc5ccccc45)nc23)C[C@@H]1O [Compound I-49, ((1S,2S,4R)-2-hydroxy-4-{[8-(1-naphthyl)-9H-purin-6-yl]amino}cyclopentyl)-methyl sulfamate]
9 | ≤ 500 |  | NS(=O)(=O)OC[C@@H]1C[C@@H](Nc2ncnc(N[C@H]3CCc4ccccc43)n2)C[C@@H]1O [Compound I-153, [(1S,2S,4R)-4-({4-[(1S)-2,3-dihydro-1H-inden-1-ylamino}-1,3,5-triazin-2-yl}amino)-2-hydroxycyclopentyl]methyl sulfamate]
10 | > 500 | < 10000 | CO[C@H]1Cc2ccccc2[C@H]1Oc1cc(O[C@@H]2C[C@@H](COS(N)(=O)=O)[C@@H](O)C2)ncn1 [Compound I-96, {(1S,2S,4R)-2-hydroxy-4-[(6-{[(1R,2S)-2-methoxy-2,3-dihydro-1H-inden-1-yl]oxy}-pyrimidin-4-yl)oxy]cyclopentyl}methyl sulfamate]
11 | ≤ 500 |  | NS(=O)(=O)OC[C@H]1C[C@@H](Nc2cc(N[C@H]3CCc4ccccc43)ncn2)C[C@@H]1O [Compound I-25, [(1R,2S,4R)-4-({6-[(1S)-2,3-dihydro-1H-inden-1-ylamino]pyrimidin-4-yl}amino)-2-hydroxycyclopentyl]methyl sulfamate]
12 |  | > 10000 | NS(=O)(=O)OC[C@@H]1C[C@@H](O)[C@H](Nc2cc(N[C@H]3CCc4ccccc43)ncn2)C1 [Compound I-76, [(1S,3R,4R)-3-({6-[(1S)-2,3-dihydro-1H-inden-1-ylamino]pyrimidin-4-yl}amino)-4-hydroxycyclopentyl]methyl sulfamate]
13 | ≤ 500 |  | NS(=O)(=O)OC[C@@H]1C[C@@H](Nc2ncnc3[nH]c(-c4ccccc4Oc4ccccc4)nc23)C[C@@H]1O [Compound I-37, ((1S,2S,4R)-2-hydroxy-4-{[8-(2-phenoxyphenyl)-9H-purin-6-yl]amino}-cyclopentyl)methyl sulfamate]
14 | ≤ 500 |  | NS(=O)(=O)OC[C@@H]1C[C@@H](Nc2ncnc3[nH]c(C4CCCCC4)nc23)C[C@@H]1O [Compound I-128, {(1S,2S,4R)-4-[(8-cyclohexyl-9H-purin-6-yl)amino]-2-hydroxycyclopentyl}methyl sulfamate]
15 | ≤ 500 |  | CC1(C)C[C@H](Nc2cc(N[C@@H]3C[C@@H](COS(N)(=O)=O)[C@@H](O)C3)ncn2)c2ccccc21 [Compound I-65, {(1S,2S,4R)-4-[(6-{[(1S)-3,3-dimethyl-2,3-dihydro-1H-inden-1-yl]amino}-pyrimidin-4-yl)amino]-2-hydroxycyclopentyl}methyl sulfamate]
16 | ≤ 500 |  | NS(=O)(=O)OC[C@@H]1C[C@@H](Oc2cc(NCc3cccc4ccccc34)ncn2)C[C@@H]1O [Compound I-42, [(1S,2S,4R)-2-hydroxy-4-({6-[(1-naphthylmethyl)amino]pyrimidin-4-yl}-oxy)cyclopentyl]methyl sulfamate]
17 | ≤ 500 |  | NS(=O)(=O)OC[C@@H]1C[C@@H](Nc2ncnc3[nH]c(-c4cccc5c4OCCO5)nc23)C[C@@H]1O [Compound I-41, ((1S,2S,4R)-4-{[8-(2,3-dihydro-1,4-benzodioxin-5-yl)-9H-purin-6-yl]amino}-2-hydroxycyclopentyl)methyl sulfamate]
18 | > 500 | < 10000 | CO[C@@H]1c2ccccc2C[C@@H]1Oc1cc(O[C@@H]2C[C@@H](COS(N)(=O)=O)[C@@H](O)C2)ncn1 [Compound I-79, {(1S,2S,4R)-2-hydroxy-4-[(6-{[(1R,2S)-1-methoxy-2,3-dihydro-1H-inden-2-yl]oxy}-pyrimidin-4-yl)oxy]cyclopentyl}methyl sulfamate]
19 | ≤ 500 |  | CC(C)(C)c1nc2c(N[C@@H]3C[C@@H](COS(N)(=O)=O)[C@@H](O)C3)ncnc2[nH]1 [Compound I-131, {(1S,2S,4R)-4-[(8-tert-butyl-9H-purin-6-yl)amino]-2-hydroxycyclopentyl}methyl sulfamate]
20 | ≤ 500 |  | CO[C@H]1Cc2ccccc2[C@H]1Nc1cc(O[C@@H]2C[C@@H](COS(N)(=O)=O)[C@@H](O)C2)ncn1 [Compound I-115, {(1S,2S,4R)-2-hydroxy-4-[(6-{[(1R,2S)-2-methoxy-2,3-dihydro-1H-inden-1-yl]amino}pyrimidin-4-yl)oxy]cyclopentyl}methyl sulfamate]
21 | ≤ 500 |  | NS(=O)(=O)OC[C@@H]1C[C@@H](Nc2ncnc(N[C@@H]3c4ccccc4CC3(F)F)n2)C[C@@H]1O [Compound I-147, {(1S,2S,4R)-4-[(4-{[(1R)-2,2-difluoro-2,3-dihydro-1H-inden-1-yl]amino}-1,3,5-triazin-2-yl)amino]-2-hydroxycyclopentyl}methyl sulfamate]
22 | ≤ 500 |  | NS(=O)(=O)OC[C@H]1C[C@@H](Nc2cc(N[C@H]3CCc4c(Cl)cccc43)ncn2)[C@H](O)[C@@H]1O [Compound I-24, {(1R,2R,3S,4R)-4-[(6-{[(1S)-4-chloro-2,3-dihydro-1H-inden-1-yl]amino}-pyrimidin-4-yl)-amino]-2,3-dihydroxycyclopentyl}methyl sulfamate]
